Some results are limits rather than exact numbers.

For the test, the target named is Bromodomain-containing protein 4 (Homo sapiens, UniProt O60885). The test can be described thus: Time Resolved Fluorescence Resonance Energy Transfer (TR-FRET) Assay: The binding of compounds to bromodomain BRD4 (44-168), BRD4 (333-460), and BRD4 (1-477 or 44-460) was assessed using a time resolved fluorescent resonance energy transfer binding assay (1), that measures the binding of a fluorescently labeled probe molecule to the bromodomain protein. The bromodomain protein, fluorescent probe molecule (either a biotinylated histone peptide or a fluorescently labeled small molecule), and dose-responded test compound are incubated together to reach thermodynamic equilibrium. In the absence of a test compound, the bromodomain and small molecule are bound, resulting in a high fluorescent signal. In the presence of a sufficient concentration of inhibitor, this intercation is disrupted resulting in a lost of fluorescent resonance energy transfer.All assay components were dissolved in buffer composition 20 mM Hepes pH 7.5, 150 mM NaCl, 5 mM DTT, 0.005% Tween 20, and 100 ug/ml BSA for BRD4 (1-477 and 44-460). The final concentrations of the bromodomain proteins are 1.6 nM BRD4(44-168), 1 nM BRD4(333-460), and 1 nM BRD4(1-477 or 44-460), and the fluorescent probe molecule is 100 nM, 50 nM, and 7.5 nM respectively. All proteins were biotinylated. A streptavidin labeled with terbium cryptate (Cisbio SA-Tb) was used as detection, and pre-mixed with the bromodomain protein at a final concentration of 0.2 nM. In some instances for BRD4 (44-460), anti-His terbium cryptate was used as a detection. 7.5 nl of dose-responded test compound or dmso vehicle (0.0375%) was pre-spotted in a black Corning 384 well plate and 10 ul each of bromodomain/detection reagent and fluorescent small molecule solution were added to the plate, and the reaction incubated for 60 min at room temperature. Plates were then read on EnVision plate reader, (λex=340 nm, acceptor λEm=520 nm, and donor λEm=615 nm, LANCE D400 mirror). Time resolved fluorescnce intensity measurements were made at both emissions, and the ratio of acceptor/donor was calculated and used for data analysis.
Turning to `COc1nnn(C)c1-c1cnc2c3c(OC)ncc(S(C)(=O)=O)c3n([C@H](c3ccccc3)C3CCOCC3)c2c1`, the IC50 (in general, the point on the concentration scale where inhibition reaches its midpoint) was below 10 nM.
With `Cc1nnn(C)c1-c1cnc2c3c(N(C)C(C)C)ncc(S(C)(=O)=O)c3n(C(c3ccccc3)C3CCC(F)(F)CC3)c2c1` (stereo not drawn) the figure was below 10 nM; with `Cc1nnn(C)c1-c1cnc2c3ccc(N4CCN(C)CC4)nc3n(C(c3ccccc3)C3CCC(F)(F)CC3)c2c1` (stereo not drawn), below 1 nM.
Take `Cc1nnn(C)c1-c1cnc2c3c(OC(C)C)ncc(S(C)(=O)=O)c3n(C(c3ccccc3)C3CCC(F)(F)CC3)c2c1` (stereo not drawn): the IC50 was below 10 nM.
With `COC1CN(c2ncc(S(C)(=O)=O)c3c2c2ncc(-c4c(C)nnn4C)cc2n3C(c2ccccc2)C2CCC(F)(F)CC2)C1` (stereo not drawn) the figure was below 10 nM; with `Cc1nnn(C)c1-c1cnc2c3c(NCC(C)C)ncc(S(C)(=O)=O)c3n(C(c3ccccc3)C3CCC(F)(F)CC3)c2c1` (stereo not drawn), below 10 nM.
As for `Cc1nnn(C)c1-c1cnc2c3c(NC(C)C)ncc(S(C)(=O)=O)c3n(C(c3ccccc3)C3CCC(F)(F)CC3)c2c1` (stereo not drawn), the 50% inhibitory concentration (IC50) was below 10 nM.
`CNCCN(C)c1ccc2c3ncc(-c4c(C)nnn4C)cc3n(C(c3ccccc3)C3CCC(F)(F)CC3)c2n1` (stereo not drawn): the IC50 is below 10 nM.

The values are drawn from ChEMBL document CHEMBL5726285, “Tricyclic compounds as anticancer agents” (2017).
